Laboratory results: article PMC6934184, “Selective DNA-PKcs inhibition extends the therapeutic index of localized radiotherapy and chemotherapy” (The Journal of Clinical Investigation, 2019)

Target: T1, PTK6 (Brk) (Homo sapiens, UniProt Q13882)
T1 construct: purchased Thermo Fisher Scientific (Life Technologies) SelectScreen
Assay: SelectScreen Z'LYTE
Type: biochemical
In short: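 SelectScreen broad panel; activity (Z'LYTE, Adapta) plus binding formats. ATP: Km app for CSF1R Z'LYTE; 10 for CAMK1 Adapta. Readout = % per kinase.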

T1 sequence (Q13882 whole entry): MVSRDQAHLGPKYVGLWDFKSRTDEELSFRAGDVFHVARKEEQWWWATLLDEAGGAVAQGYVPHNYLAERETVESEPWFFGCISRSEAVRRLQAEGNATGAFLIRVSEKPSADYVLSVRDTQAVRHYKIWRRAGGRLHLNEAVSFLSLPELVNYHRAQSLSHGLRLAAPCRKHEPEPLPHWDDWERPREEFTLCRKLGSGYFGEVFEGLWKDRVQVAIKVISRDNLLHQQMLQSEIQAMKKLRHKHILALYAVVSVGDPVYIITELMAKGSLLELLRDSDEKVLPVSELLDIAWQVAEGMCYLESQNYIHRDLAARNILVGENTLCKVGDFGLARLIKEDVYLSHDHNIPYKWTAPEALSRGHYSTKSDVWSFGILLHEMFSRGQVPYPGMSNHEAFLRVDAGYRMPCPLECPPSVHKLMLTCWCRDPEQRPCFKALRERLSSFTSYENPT

CN(C(=O)CN1CCOCC1)c1ccc2sc3c(-c4cccc5c(=O)cc(N6CC7CCC(C6)O7)oc45)cccc3c2c1 [NU5455]
inhibition at 1 µM: 0.7%
